Results published in patent publication US8067422B2, “Crystal form of phenylamino pyrimidine derivatives” (Natco Pharma Limited, priority 2008, dated 2011).

Tests used:
[1] = system: AKT, ERK and Pi3k in U87 glioma cells; assay: Western blot analysis, U87; type: cell-based
Method: (§1) Western blot analysis of 4910, 5310 and U87 glioma cells and MDAMB231 and ZR71 breast cancer cells in the presence of specified concentrations of compounds were assessed as per standard protocols. Cells were treated with AN019, AN024 or Temozolomide at the specified concentrations. 24 h after treatment, cells were collected and cell lysates extracted. Equal quantities of proteins were fractionated by SDS-PAGE. The fractionated proteins were blotted on to nylon membranes and immunoprobed for AKT, ERK and Pi3k. Breast cancer cell protein isolates were additionally immunoprobed for EGFR, ErbB1, ErbB2 and ErbB3.

[2] = system: 5310 glioma cells; assay: Matrigel invasion assay (modified Boyden chamber), 5310; type: cell-based; details: 5310
Method: (§2) The in vitro invasiveness of 4910, 5310 and U87 glioma cells and MDAMB231 and ZR71 breast cancer cells in the presence of specified concentrations of compounds were assessed using a modified Boyden chamber assay. Cells were treated with these compounds for 48 h. 1×10^6 cells were suspended in 600 μl of serum-free medium supplemented with 0.2% BSA and placed in the upper compartment of the transwell chambers (Corning Costar Fischer Scientific Cat #07-200-158, Pittsburgh Pa.) coated with Matrigel (0.7 mg/ml). The lower compartment of the chamber was filled with 200 μl of serum medium and the cells were allowed to migrate for 24 h. After incubation, the cells were fixed and stained with Hema-3 and quantified as previously described (Mohanam et al. 1993). The migrated cells were imaged microscopically to determine the reduction in invasiveness induced by the compounds of this invention.

[3] = system: MDAMB231 breast cancer cells; assay: In vitro angiogenic assay, MDA-MB-231 conditioned media on human dermal endothelial cells; type: cell-based; details: MDA-MB-231 cells
Method: (§3) The in vitro angiogenesis of 4910, 5310 and U87 glioma cells and MDAMB231 and ZR71 breast cancer cells in the presence of specified concentrations of compounds were determined as follows, cells (2×10^4/well) were seeded in 8-well chamber slides and were treated with various concentrations of test compounds. After a 24 h incubation period, the conditioned media was removed and added to a 4×10^4 human dermal endothelial cell (monolayer in 8-well chamber slides) and the human dermal endothelial cells were allowed to grow for 72 h. Cells were then fixed in 3.7% formaldehyde and stained with H&E and photographed.

[4] = system: 5310 glioma cells; assay: In vitro angiogenic assay, 5310 conditioned media on human dermal endothelial cells; type: cell-based; details: 5310 cells
Method: as §3

[5] = system: K562 luciferase expressing cells; assay: Leukemic survival study in nude mice implanted with K562 luciferase expressing cells; type: in vivo
Text: K562 luciferase expressing cells were implanted intraperitoneally into nude mice; the mice were scanned using the xenogeny IVIS image station after ip injections of luciferin does determine implantations. Drug treatment was started as in previous studies day 15 after implantation. The animals were given treatment till day 42, after which drug treatment was stopped and survival of the animals determined as per the animal care regulations. […] Drug treatment was withdrawn on day 42 post implantation and survival of animals determined.

[6] = system: 4910 glioma cells; assay: In vitro angiogenic assay, 4910 conditioned media on human dermal endothelial cells; type: cell-based; details: 4910 cells
Method: as §3

[7] = system: AKT, ERK and Pi3k in 4910 glioma cells; assay: Western blot analysis, 4910; type: cell-based, human
Method: as §1

[8] = system: MDAMB231 breast cancer cells; assay: Matrigel invasion assay (modified Boyden chamber), MDA-MB-231; type: cell-based; details: MDA-MB-231
Method: as §2

[9] = system: Baf3 murine leukemia cells (M351T); assay: Blast cell count in nude mice implanted with Baf3 M351T cells; type: in vivo; details: Baf3M351T; Imatinib 10 mg/kg, AN019 20 mg/kg, AN024 20 mg/kg, oral gavage or ip; day 42
Text: (§4) Blood smears were obtained via the tail vein or via the femoral vein every 6th day and blast cells counted and graphically represented.
(§5) Abdominal swelling and decrease in activity was monitored daily, blood smear taken via the tail vein or the femoral vein every 6th day and H&E stained as per standard protocols. 42 days after implantation, mice were sacrificed and spleens harvested.
(§6) Nude mice were intraperitoneally implanted with Baf3 mutant cells (wt, T315I, M351T or E255K). […] Blood was drawn from the femoral vein or tail vein every 6th day and blast cell count determined and graphically represented.

[10] = system: 4910 glioma cells; assay: Matrigel invasion assay (modified Boyden chamber), 4910; type: cell-based, human; details: 4910
Method: as §2

[11] = system: Baf3 murine leukemia cells (E255K); assay: Blast cell count in nude mice implanted with Baf3 E255K cells; type: in vivo; details: Baf3 E225K (E255K); Imatinib 10 mg/kg, AN019 20 mg/kg, AN024 20 mg/kg, oral gavage or ip; day 42
Text: as §4, §5, §6

[12] = system: Baf3 murine leukemia cells (T315I); assay: Blast cell count in nude mice implanted with Baf3 T315I cells; type: in vivo; details: Baf3T315I; Imatinib 10 mg/kg, AN019 20 mg/kg, AN024 20 mg/kg, oral gavage or ip; day 42
Text: as §4, §5, §6

[13] = system: U87 glioma cells; assay: Matrigel invasion assay (modified Boyden chamber), U87; type: cell-based; details: U87
Method: as §2

[14] = system: 4910 human glioma xenograft cells; assay: Glioma radiation study, nude mice intracranially implanted with 4910 cells; type: in vivo
Method: Nude mice were intracranially implanted with 4910 human glioma xenograft cells (1×10^6 cells). Ten days after implantation mice were treated with AN019, AN024 or temozolomide with or without radiation (5 Gy/week). The experiment was terminated at day 40 post implantation.

[15] = system: K562; assay: ED50 (po) in leukemic mice (K562); details: po, mice
[16] = system: ZR71 breast cancer cells; assay: In vitro angiogenic assay, ZR-71 conditioned media on human dermal endothelial cells; type: cell-based; details: ZR-71 cells; radiation not distinguished
Method: as §3

[17] = system: ZR71 breast cancer cells; assay: Matrigel invasion assay (modified Boyden chamber), ZR-71; type: cell-based; details: ZR-71
Method: as §2

[18] = system: AKT, ERK and Pi3k in ZR71 breast cancer cells; assay: Western blot analysis, ZR71; type: cell-based
Method: as §1

[19] = system: U87 glioma cells; assay: In vitro angiogenic assay, U87 conditioned media on human dermal endothelial cells; type: cell-based
Method: as §3

[20] = not given; remark: listed apart in the source

Cc1ccc(NC(=O)c2cccc(S(=O)(=O)C(F)(F)F)c2)cc1Nc1nccc(-c2cccnc2)n1 [AN024]
ERK levels (Western blot) ([1]; U87, after radiation): decrease was enhanced
ERK levels (Western blot) ([1]; U87, without radiation): slight decrease in ERK levels
±Change in invasion after radiation [2]: +5%
Inhibition of angiogenesis ([3]; after radiation): only a slight inhibition
Inhibition of angiogenesis ([3]; control condition (without radiation)): only a slight inhibition
Inhibition of angiogenesis ([4]; after radiation): angiogenesis further inhibited
Inhibition of angiogenesis ([4]; control conditions (without radiation)): inhibition of angiogenesis
MTD Mice: 500 mg/kg
Blast cell count from blood smears, effectiveness after withdrawal of drug treatment ([5]; drug treatment withdrawn on day 42): showed effectiveness after withdrawal of drug treatment
Animals showing no signs of leukemia / complete absence of leukemic symptoms ([5]; of 10 animals, drug withdrawn day 42, AN024 on day 55): 8 animals
Mortality ([5]; treatment day 15 to day 42, then withdrawn, 10 animals): mortality on day 38
Inhibition of angiogenesis ([6]; after radiation): significant inhibition of angiogenesis
Inhibition of angiogenesis ([6]; without radiation): significant inhibition of angiogenesis
AKT levels (Western blot) ([7]; 4910, after radiation): decrease in AKT levels was enhanced
AKT levels (Western blot) ([7]; 4910, without radiation): decrease in AKT levels
±Change in invasion after radiation [8]: +4%
Blast cell count in blood smears [9]: significant decrease in blast cell count
±Change in invasion after radiation [10]: −17%
Blast cell count in blood smears [11]: significant decrease in blast cell count
Blast cell count in blood smears [12]: significant decrease in blast cell count
±Change in invasion after radiation [13]: −24%
Animals cured / no observable intracranial tumor ([14]; of 10 animals, with radiation (5 Gy/week), day 40 post implantation): 7 animals
Animals cured / complete absence of intracranial tumours ([14]; of 10 animals, without radiation, day 40 post implantation): 3 animals
Intracranial tumour size and appearance ([14]; with radiation (5 Gy/week)): well defined surgically respectable tumours
Intracranial tumour size and appearance ([14]; without radiation): tumours were well defined and not showing diffuse edges
ED50 (po) Mice [15]: 10 mg/kg
Inhibition of angiogenesis [16]: complete inhibition of angiogenesis
±Change in invasion after radiation [17]: −3%
AKT levels (Western blot) ([18]; ZR71, after radiation): decrease in AKT expression
AKT levels (Western blot) ([18]; ZR71, unirradiated): did not show any significant change
PI3k levels (Western blot) ([18]; ZR71, with radiation): decrease in PI3k levels
Inhibition of angiogenesis ([19]; after radiation): increase in inhibition
Inhibition of angiogenesis ([19]; without radiation): significant retardation in angiogenesis
LD50 (po) Mice [20]: 1440 mg/kg
